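Method: 48-hour compound exposure of cells in 96-well plates, five concentrations, linear interpolation of endpoints. GI50 = concentration required for 50% inhibition of growth.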 Calls of active or inactive are those of the source. Rule as the data show it: active = GI50 up to about 1.1 µM and inactive = higher.
How the values were obtained:
Experiment in all cases: NCI-60 cell line screen, 48 h
MDA-MB-435 = system: MDA-MB-435
MDA-MB-231 = system: MDA-MB-231
BT-549 = system: BT-549
OVCAR-5 = system: OVCAR-5
HT-29 = system: HT-29
MCF7 = system: MCF7
HCT-15 = system: HCT-15
KM12 = system: KM12
NCI-H460 = system: NCI-H460
SF-295 = system: SF-295
SK-MEL-5 = system: SK-MEL-5
COLO 205 = system: COLO 205
DU-145 = system: DU-145
SK-MEL-2 = system: SK-MEL-2
ACHN = system: ACHN
UACC-257 = system: UACC-257
786-0 = system: 786-0
HOP-92 = system: HOP-92
UO-31 = system: UO-31
Hs-578T = system: Hs-578T

Compound | GI50 (MDA-MB-435) | GI50 (MDA-MB-231) | GI50 (BT-549) | GI50 (OVCAR-5) | GI50 (HT-29) | GI50 (MCF7) | GI50 (HCT-15) | GI50 (KM12) | GI50 (NCI-H460) | GI50 (SF-295) | GI50 (SK-MEL-5) | GI50 (COLO 205) | GI50 (DU-145) | GI50 (SK-MEL-2) | GI50 (ACHN) | GI50 (UACC-257) | GI50 (786-0) | GI50 (HOP-92) | GI50 (UO-31) | GI50 (Hs-578T)
COC(=O)C1=CSC2(S1)C(C(=O)OC)=CSc1c2ssc1=O (stereo not given) | 1.72 µM (inactive) | 1.85 µM (inactive) | 2.7 µM (inactive) | 8.15 µM (inactive) | 1.81 µM (inactive) | 1.75 µM (inactive) | 1.54 µM | 3.9 µM (inactive) | 6.15 µM (inactive) | 16.3 µM (inactive) | 2.24 µM (inactive) | 1.87 µM (inactive) | 1.73 µM (inactive) | 1.96 µM (inactive) | 1.87 µM (inactive) | 1.87 µM (inactive) | 1.57 µM (inactive) | 2.07 µM (inactive) | 1.84 µM (inactive) | 2.36 µM (inactive)
CC1=C(C)SC(=C2Sc3c(n(C)c(=O)[nH]c3=O)S2)S1 | > 100 µM (inactive) | > 100 µM (inactive) | > 100 µM (inactive) | > 100 µM (inactive) | > 100 µM (inactive) | > 100 µM (inactive) | > 100 µM | > 100 µM (inactive) | > 100 µM (inactive) | > 100 µM (inactive) | > 100 µM (inactive) | > 100 µM (inactive) | > 100 µM (inactive) | > 100 µM (inactive) | > 100 µM (inactive) | > 100 µM (inactive) | > 100 µM (inactive) | > 100 µM (inactive) | > 100 µM (inactive) | > 100 µM (inactive)
C=C(C)[C@@H]1CCC2=C[C@H](OC2=O)[C@@]2(C)C[C@@H]2C(=O)/C=C(/C)C(=O)[C@H]1OC(C)=O | 13.2 µM (inactive) | 36.4 µM (inactive) | 11.4 µM (inactive) | 15.5 µM (inactive) | 11.1 µM (inactive) | 4.52 µM (inactive) | 12.7 µM | 17.7 µM (inactive) | 30.1 µM (inactive) | 42.6 µM (inactive) | 16.2 µM (inactive) | 18.3 µM (inactive) | 5.97 µM (inactive) | 26.3 µM (inactive) | 17.3 µM (inactive) | 21.1 µM (inactive) | 11.4 µM (inactive) | 41.2 µM (inactive) | 10.9 µM (inactive) | 16.9 µM (inactive)
O=C1CCCC2C3CC(CN12)C1CCCCN1C3.[O-][Cl+3]([O-])([O-])O (stereo not given) | > 100 µM (inactive) | > 100 µM (inactive) | > 100 µM (inactive) | > 100 µM (inactive) | > 100 µM (inactive) | > 100 µM (inactive) | > 100 µM | > 100 µM (inactive) | > 100 µM (inactive) | > 100 µM (inactive) | > 100 µM (inactive) | > 100 µM (inactive) | > 100 µM (inactive) | > 100 µM (inactive) | > 100 µM (inactive) | > 100 µM (inactive) | > 100 µM (inactive) | > 100 µM (inactive) | > 100 µM (inactive) | > 100 µM (inactive)
COc1cccc2c1C(=O)c1c(O)c3c(c(O)c1C2=O)C[C@@](O)(C(C)=O)C[C@@H]3OC1CC(N(C)C)C(O)C(C)O1 (stereo not given in full) | 0.000489 µM (active) | 0.00132 µM (active) | 0.00114 µM (active) | 0.00577 µM (active) | 0.00356 µM (active) | 0.01 µM (active) | 0.00389 µM | 0.00485 µM (active) | 0.00383 µM (active) | 0.00425 µM (active) | 0.00236 µM (active) | 0.00428 µM (active) | 0.000785 µM (active) | 0.0798 µM (active) | 0.00337 µM (active) | 0.00555 µM (active) | 0.0562 µM (active) | 0.084 µM (active) | 0.00371 µM (active) | 0.000123 µM (active)
C=C1C(=O)O[C@H]2C[C@@H]1C(=O)CC(C)CCCC(C)=CCC[C@@]2(C)O (stereo not given in full) | > 25 µM (inactive) | > 25 µM (inactive) | > 25 µM (inactive) | > 25 µM (inactive) | > 25 µM (inactive) | > 25 µM (inactive) | > 25 µM | > 25 µM (inactive) | > 25 µM (inactive) | > 25 µM (inactive) | > 25 µM (inactive) | > 25 µM (inactive) | > 25 µM (inactive) | > 25 µM (inactive) | > 25 µM (inactive) | > 25 µM (inactive) | > 25 µM (inactive) | > 25 µM (inactive) | > 25 µM (inactive) | > 25 µM (inactive)
OCCNC1c2cc(Cl)ccc2-c2c(Cl)cc(Cl)cc21 (stereo not given) | 35.6 µM (inactive) | 22 µM (inactive) | > 100 µM (inactive) | 42.2 µM (inactive) | 31.5 µM (inactive) | 17.2 µM (inactive) | 33.7 µM | 32.7 µM (inactive) | 21.7 µM (inactive) | 35.6 µM (inactive) | > 100 µM (inactive) | 54.8 µM (inactive) | > 100 µM (inactive) | 15.2 µM (inactive) | 25.9 µM (inactive) | 31.3 µM (inactive) | 27.3 µM (inactive) | 20.3 µM (inactive) | 3.37 µM (inactive) | 33.1 µM (inactive)
Cc1cc(=O)n2nc(CSc3nnc(S)s3)sc2n1 | > 100 µM (inactive) | > 100 µM (inactive) | > 100 µM (inactive) | > 100 µM (inactive) | > 100 µM (inactive) | > 100 µM (inactive) | > 100 µM | > 100 µM (inactive) | > 100 µM (inactive) | > 100 µM (inactive) | > 100 µM (inactive) | > 100 µM (inactive) | > 100 µM (inactive) | > 100 µM (inactive) | > 100 µM (inactive) | > 100 µM (inactive) | > 100 µM (inactive) | > 100 µM (inactive) | > 100 µM (inactive) | > 100 µM (inactive)
O=c1[nH]c(=O)n(C2COC(CO)C2O)cc1F (stereo not given) | 48.9 µM (inactive) | > 100 µM (inactive) | 32.7 µM (inactive) | > 100 µM (inactive) | 39 µM (inactive) | 8.41 µM (inactive) | 16.4 µM | > 100 µM (inactive) | 4.98 µM (inactive) | 30.5 µM (inactive) | 21.4 µM (inactive) | 25.1 µM (inactive) | 29.8 µM (inactive) | 61.4 µM (inactive) | 38.5 µM (inactive) | 60.4 µM (inactive) | 70 µM (inactive) | 50.8 µM (inactive) | 14.6 µM (inactive) | > 100 µM (inactive)
CCCCCCCCCCCCCCCCCC(=O)Nc1ccn(C2OC(CO)C(O)C2O)c(=O)n1 (stereo not given) | 19.3 µM (inactive) | > 100 µM (inactive) | > 54.2 µM (inactive) | > 70.5 µM (inactive) | 20.1 µM (inactive) | 2.06 µM (inactive) | 33 µM | > 65.9 µM (inactive) | 2.69 µM (inactive) | > 85.1 µM (inactive) | 47.9 µM (inactive) | 61.9 µM (inactive) | 10.7 µM (inactive) | > 100 µM (inactive) | 4.74 µM (inactive) | > 100 µM (inactive) | > 40.8 µM (inactive) | 58.1 µM (inactive) | 5.87 µM (inactive) | > 100 µM (inactive)
Cc1ccc(Nc2nc(C)c(C(=O)CC(=O)C(=O)Nc3c(C)cccc3C(C)(C)C)s2)cc1 | > 100 µM (inactive) | 42.9 µM (inactive) | > 100 µM (inactive) | > 100 µM (inactive) | > 100 µM (inactive) | > 100 µM (inactive) | > 100 µM | > 100 µM (inactive) | > 100 µM (inactive) | > 100 µM (inactive) | > 100 µM (inactive) | > 100 µM (inactive) | > 100 µM (inactive) | > 100 µM (inactive) | > 100 µM (inactive) | > 100 µM (inactive) | 75.9 µM (inactive) | > 100 µM (inactive) | > 100 µM (inactive) | 56 µM (inactive)
O=[N+]([O-])/C(C(Cl)=C(Cl)Cl)=C(\N1CCCCC1)n1nnc2ccccc21 | 31.6 µM (inactive) | 17.3 µM (inactive) | 23.3 µM (inactive) | 17.8 µM (inactive) | 19.5 µM (inactive) | 25.4 µM (inactive) | 17.8 µM | 25.8 µM (inactive) | 22.4 µM (inactive) | 17.5 µM (inactive) | 17.5 µM (inactive) | 17.8 µM (inactive) | 18.7 µM (inactive) | 17.1 µM (inactive) | 19.7 µM (inactive) | 17.9 µM (inactive) | 18.5 µM (inactive) | 19.3 µM (inactive) | 18.2 µM (inactive) | 32.9 µM (inactive)
O=C1C=C(Br)c2c(Br)sc(Br)c21 | 10 µM (inactive) | 17.2 µM (inactive) | 6.76 µM (inactive) | 19.1 µM (inactive) | 13.5 µM (inactive) | 3.85 µM (inactive) | 5.61 µM | 17 µM (inactive) | 19.6 µM (inactive) | 31.6 µM (inactive) | 16.3 µM (inactive) | 4.83 µM (inactive) | 14.9 µM (inactive) | 20.7 µM (inactive) | 4.62 µM (inactive) | 1.89 µM (inactive) | 2.53 µM (inactive) | 3 µM (inactive) | 3.4 µM (inactive) | 30.2 µM (inactive)
Nc1ccc2c(c1)CN1C(=O)c3ccccc3C1=N2 [DANIQUIDONE] | 29.2 µM (inactive) | 31.6 µM (inactive) | > 93.3 µM (inactive) | 64.9 µM (inactive) | 69.3 µM (inactive) | 39.5 µM (inactive) | 34.8 µM | 50.7 µM (inactive) | 15.5 µM (inactive) | 12.9 µM (inactive) | 16.8 µM (inactive) | 23.3 µM (inactive) | 27.4 µM (inactive) | > 79.8 µM (inactive) | 14.7 µM (inactive) | 96.6 µM (inactive) | 28.4 µM (inactive) | 36.9 µM (inactive) | 27.3 µM (inactive) | 21.3 µM (inactive)

Source: ChEMBL document CHEMBL1201862, “PubChem BioAssay data set” (2004)
